Measurements as given in patent publication US20060121083A1 (priority 2003, published 2006).
In brackets after ≈: the same amount, converted by molar mass. Square brackets hold non-standard residues; d marks the D form. Peptide text beside a SMILES is read from it. * marks the point of attachment. Lauroyl = CCCCCCCCCCCC(=O)*; 12Ado = NCCCCCCCCCCCC(=O)O; Hexanoyl = CCCCCC(=O)*; Butyryl = CCCC(=O)*

These compounds were tested on S. aureus (assay: MIC assayed against S. aureus (Table 1)).
Type: cell-based

Row | SMILES | MIC (minimal inhibitory concentration) [µM]
1 | CCCCCC(=O)N[C@@H](C)C(=O)N[C@@H](CC(C)C)C(=O)N[C@@H](Cc1c[nH]c2ccccc12)C(=O)N[C@@H](CCCCN)C(=O)N[C@H](C(=O)N[C@@H](CC(C)C)C(=O)N[C@@H](CC(C)C)C(=O)N[C@@H](CCCCN)C(=O)N[C@@H](CCCCN)C(=O)N[C@H](C(=O)N[C@@H](CC(C)C)C(=O)N[C@@H](CCCCN)C(=O)N[C@@H](C)C(N)=O)C(C)C)[C@@H](C)O [SEQ ID NO: 1, C6—, —CONH2] (Hexanoyl-ALWKTLLKKVLKA-NH2) | 2.2 ± 0.8 (≈ 3.54 µg/mL)
2 | CCCC(=O)N[C@@H](C)C(=O)N[C@@H](CC(C)C)C(=O)N[C@@H](Cc1c[nH]c2ccccc12)C(=O)N[C@@H](CCCCN)C(=O)N[C@H](C(=O)N[C@@H](CC(C)C)C(=O)N[C@@H](CC(C)C)C(=O)N[C@@H](CCCCN)C(=O)N[C@@H](CCCCN)C(=O)N[C@H](C(=O)N[C@@H](CC(C)C)C(=O)N[C@@H](CCCCN)C(=O)N[C@@H](C)C(N)=O)C(C)C)[C@@H](C)O [SEQ ID NO: 1, C4—, —CONH2] (Butyryl-ALWKTLLKKVLKA-NH2) | 12 (≈ 19 µg/mL)
3 | CC(C)C[C@H](NC(=O)[C@H](Cc1c[nH]c2ccccc12)NC(=O)[C@H](CCCCN)NC(=O)[C@@H](NC(=O)[C@H](CC(C)C)NC(=O)[C@H](CC(C)C)NC(=O)[C@H](CCCCN)NC(=O)[C@H](CCCCN)NC(=O)[C@@H](NC(=O)[C@H](CC(C)C)NC(=O)[C@H](CCCCN)NC(=O)[C@H](C)NC(=O)CCCCCCCCCCCN)C(C)C)[C@@H](C)O)C(=O)N[C@@H](C)C(N)=O [SEQ ID NO: 2, NC12—, —CONH2] | 1.5 (≈ 2.56 µg/mL)
4 | CC(C)C[C@H](NC(=O)[C@H](C)NC(=O)CCCCCCCCCCCN)C(=O)N[C@@H](Cc1c[nH]c2ccccc12)C(=O)N[C@@H](CCCCN)C(=O)N[C@H](C(=O)N[C@@H](CC(C)C)C(=O)N[C@@H](CC(C)C)C(=O)N[C@@H](CCCCN)C(=O)N[C@@H](CCCCN)C(=O)N[C@H](C(=O)N[C@@H](CC(C)C)C(=O)N[C@@H](CCCCN)C(=O)N[C@@H](C)C(N)=O)C(C)C)[C@@H](C)O [SEQ ID NO: 1, NC12—, —CONH2] (H-[12Ado]ALWKTLLKKVLKA-NH2) | 0.75 (≈ 1.28 µg/mL)
5 | CCCCCCCCCCCC(=O)N[C@@H](C)C(=O)N[C@@H](CC(C)C)C(=O)N[C@@H](Cc1c[nH]c2ccccc12)C(=O)N[C@@H](CCCCN)C(=O)N[C@H](C(=O)N[C@@H](CC(C)C)C(=O)N[C@@H](CC(C)C)C(=O)N[C@@H](CCCCN)C(=O)N[C@@H](CCCCN)C(=O)N[C@H](C(N)=O)C(C)C)[C@@H](C)O [SEQ ID NO: 4, C12, —CONH2] (Lauroyl-ALWKTLLKKV-NH2) | 3 (≈ 4.14 µg/mL)
6 | CCCCCCCCCCCC(=O)N[C@H](C(=O)N[C@@H](CC(C)C)C(=O)N[C@@H](CC(C)C)C(=O)N[C@@H](CCCCN)C(=O)N[C@@H](CCCCN)C(=O)N[C@H](C(=O)N[C@@H](CC(C)C)C(=O)N[C@@H](CCCCN)C(=O)N[C@@H](C)C(N)=O)C(C)C)[C@@H](C)O [SEQ ID NO: 5, C12, —CONH2] (Lauroyl-TLLKKVLKA-NH2) | 1.5 ± 0.75 (≈ 1.79 µg/mL)
7 | CC(=O)N[C@@H](C)C(=O)N[C@@H](CC(C)C)C(=O)N[C@@H](Cc1c[nH]c2ccccc12)C(=O)N[C@@H](CCCCN)C(=O)N[C@H](C(=O)N[C@@H](CC(C)C)C(=O)N[C@@H](CC(C)C)C(=O)N[C@@H](CCCCN)C(=O)N[C@@H](CCCCN)C(=O)N[C@H](C(=O)N[C@@H](CC(C)C)C(=O)N[C@@H](CCCCN)C(=O)N[C@@H](C)C(N)=O)C(C)C)[C@@H](C)O [SEQ ID NO: 1, C2—, —CONH2] (Ac-ALWKTLLKKVLKA-NH2) | 25 (≈ 38.8 µg/mL)
8 | CC(C)C[C@H](NC(=O)[C@H](C)NC(=O)[C@H](CCCCN)NC(=O)CCCCCCCCCCCN)C(=O)N[C@@H](Cc1c[nH]c2ccccc12)C(=O)N[C@@H](CCCCN)C(=O)N[C@H](C(=O)N[C@@H](CC(C)C)C(=O)N[C@@H](CC(C)C)C(=O)N[C@@H](CCCCN)C(=O)N[C@@H](CCCCN)C(=O)N[C@H](C(=O)N[C@@H](CC(C)C)C(=O)N[C@@H](CCCCN)C(=O)N[C@@H](C)C(N)=O)C(C)C)[C@@H](C)O [SEQ ID NO: 3, NC12—, —CONH2] | 1.5 (≈ 2.75 µg/mL)
